In patent US20100068204A1, “4-ARYLOXYQUINOLIN-2(1H)-ONES AS MTOR KINASE AND PI3 KINASE INHIBITORS, FOR USE AS ANTI-CANCER AGENTS” (Wyeth, priority 2008, published 2010):

Assays:
PI3Kα = PI3Kα (Homo sapiens, UniProt P42336); test: PI3Kα fluorescence polarization assay; assay type: biochemical; details: 20 μM PIP2, 25 μM ATP
Experimental: The reaction buffer was 20 mM HEPES pH7.5, 2 mM MgCl2, 0.05% CHAPS, and 0.01% βME (added fresh). The substrate solution was 40 μM PIP2 (diC8, Echelon, Salt Lake City Utah cat #P-4508, 1 mM in water) and 50 μM ATP in the reaction buffer. Nunc 384-well black polypropylene fluorescent plates were used for PI3K assays. The assay is run by putting 9.5 μl of freshly diluted enzyme in the reaction buffer per well, adding 0.5 μl of diluted drug or DMSO, and mixing. Then 10 μl of the substrate solution is added to each well to start the reaction. A final concentration of 20 μM PIP2 and 25 μM ATP in the reaction was used. Reactions were allowed to proceed for 30-60 minutes at room temperature. After 30-60 minutes, 20 μl of a solution of 10 nM TAMRA detector (Red detector probe-Echelon) and 2.5 uM of GST-murine GRP (1.5 mg/ml in 17% glycerol) was added per well to stop the reaction. The resulting solution was mixed well and allowed to stand for 90-110 minutes before reading plate. Assay Plates were read on Perkin-Elmer Envision plate readers with appropriate filters for Tamra [BODIPY-TMRI(1,3,4,5)P4]. Data obtained were used to calculate enzymatic activity and enzyme inhibition by inhibitor compounds. It is important to keep Red probe solutions dark. This procedure is adapted from Echelon Biosciences Inc procedure for their PI3-Kinase fluorescence polarization activity Assay kit Product number K-1100.

[1] = system: LNCap prostate tumor cells; test: In vitro cell growth assay (MTS), LNCap; assay type: cell-based, human; details: Homo sapiens, LNCaP, 72 h, three days after drug treatment
Experimental: (§1) Cell lines used were human adenocarcinoma (LoVo), […], prostate (LNCap), breast (MDA468, MCF7), colon (HCT116), renal (HTB44 A498), and ovarian (OVCAR3) tumor cell lines. The tumor cells were plated in 96-well culture plates at approximately 3000 cells per well. One day following plating, various concentrations of inhibitors in DMSO were added to cells (final DMSO concentration in cell assays was 0.25%). Three days after drug treatment, viable cell densities were determined by cell mediated metabolic conversion of the dye MTS, a well-established indicator of cell proliferation in vitro. Cell growth assays were performed using kits purchased from Promega Corporation (Madison, Wis.), following the protocol provided by the vendor. Measuring absorbance at 490 nm generated MTS assay results. Compound effect on cell proliferation was assessed relative to untreated control cell growth.

[2] = system: MDA468 breast tumor cells; test: In vitro cell growth assay (MTS), MDA468; assay type: cell-based, human; details: Homo sapiens, 72 h, three days after drug treatment
Experimental: as §1

human TOR (FLAG-TOR) = human TOR (FLAG-TOR) (Homo sapiens, UniProt P42345); test: mTOR enzyme assay (DELFIA format, purified enzyme); assay type: biochemical; details: 800 ng/ml FLAG-TOR, 100 μM ATP, 1.25 μM His6-S6K; read-out: mTOR Kinase IC50

Sequence of PI3Kα (P42336 whole entry, species assumed): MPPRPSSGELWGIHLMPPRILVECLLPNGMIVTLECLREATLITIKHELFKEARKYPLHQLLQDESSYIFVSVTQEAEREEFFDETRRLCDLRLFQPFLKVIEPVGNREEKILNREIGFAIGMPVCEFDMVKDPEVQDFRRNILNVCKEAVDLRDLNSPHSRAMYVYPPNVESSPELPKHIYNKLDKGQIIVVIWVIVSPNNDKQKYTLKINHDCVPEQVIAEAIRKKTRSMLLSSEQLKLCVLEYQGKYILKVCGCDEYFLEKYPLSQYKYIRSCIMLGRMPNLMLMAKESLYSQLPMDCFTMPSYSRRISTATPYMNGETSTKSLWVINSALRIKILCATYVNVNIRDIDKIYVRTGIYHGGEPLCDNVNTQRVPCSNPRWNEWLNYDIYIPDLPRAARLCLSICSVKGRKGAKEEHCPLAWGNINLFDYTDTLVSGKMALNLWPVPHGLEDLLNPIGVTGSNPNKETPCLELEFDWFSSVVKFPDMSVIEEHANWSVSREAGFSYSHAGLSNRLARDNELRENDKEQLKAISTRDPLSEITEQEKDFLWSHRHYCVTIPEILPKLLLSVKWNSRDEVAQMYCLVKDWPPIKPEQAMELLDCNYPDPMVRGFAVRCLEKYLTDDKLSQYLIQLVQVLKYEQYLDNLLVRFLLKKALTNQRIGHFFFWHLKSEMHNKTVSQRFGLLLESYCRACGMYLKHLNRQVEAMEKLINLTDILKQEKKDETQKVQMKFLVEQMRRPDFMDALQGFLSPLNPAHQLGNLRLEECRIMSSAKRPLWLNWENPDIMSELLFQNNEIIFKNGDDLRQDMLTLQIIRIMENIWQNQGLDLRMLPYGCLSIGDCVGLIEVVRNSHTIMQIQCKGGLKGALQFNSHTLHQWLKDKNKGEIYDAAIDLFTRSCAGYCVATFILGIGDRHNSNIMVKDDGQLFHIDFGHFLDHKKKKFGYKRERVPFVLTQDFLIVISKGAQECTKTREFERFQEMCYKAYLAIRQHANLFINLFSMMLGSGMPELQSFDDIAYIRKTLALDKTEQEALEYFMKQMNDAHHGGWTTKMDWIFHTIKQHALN
Sequence of PI3Kα (P27986 whole entry partner, species assumed): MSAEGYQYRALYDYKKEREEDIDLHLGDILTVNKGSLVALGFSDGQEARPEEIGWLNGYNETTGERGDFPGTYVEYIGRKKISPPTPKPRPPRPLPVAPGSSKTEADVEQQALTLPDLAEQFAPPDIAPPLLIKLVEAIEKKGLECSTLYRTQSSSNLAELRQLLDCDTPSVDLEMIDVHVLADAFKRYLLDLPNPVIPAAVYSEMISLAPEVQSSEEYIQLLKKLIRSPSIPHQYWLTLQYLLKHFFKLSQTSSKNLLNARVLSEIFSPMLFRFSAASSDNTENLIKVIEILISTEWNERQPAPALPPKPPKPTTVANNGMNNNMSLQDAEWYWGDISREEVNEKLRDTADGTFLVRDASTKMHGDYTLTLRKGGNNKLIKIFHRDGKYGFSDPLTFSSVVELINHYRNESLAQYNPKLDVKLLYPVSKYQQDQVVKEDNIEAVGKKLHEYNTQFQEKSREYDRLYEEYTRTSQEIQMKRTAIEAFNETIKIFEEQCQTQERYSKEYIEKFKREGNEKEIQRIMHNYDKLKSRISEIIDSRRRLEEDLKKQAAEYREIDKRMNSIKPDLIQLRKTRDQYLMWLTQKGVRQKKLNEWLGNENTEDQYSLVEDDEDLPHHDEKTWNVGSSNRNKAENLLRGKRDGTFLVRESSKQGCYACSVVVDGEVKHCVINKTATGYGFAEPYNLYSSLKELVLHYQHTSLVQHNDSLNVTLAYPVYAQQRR

`Cn1cc(CN(Cc2ccn(C)n2)c2cccc(Oc3cc(=O)[nH]c4ccccc34)c2)cn1` was tested, and the IC50 (PI3Kα) was 4.62 µM, the IC50 [1] was 3 µM and the IC50 [2] was 3 µM. The IC50 (human TOR (FLAG-TOR)) was 0.23 µM.
In the case of `Cn1cc(CNc2cccc(Oc3cc(=O)[nH]c4ccccc34)c2)cn1`, the IC50 (PI3Kα) is reported as 4.79 µM, the IC50 [1] is reported as 4 µM and the IC50 [2] is reported as 8.8 µM. It also gave an IC50 (human TOR (FLAG-TOR)) of 0.17 µM.
Compound `CC(C)(C)OC(=O)N1CCN(c2ccc(-c3cccc(Oc4cc(=O)[nH]c5ccccc45)c3)cn2)CC1` has an IC50 (PI3Kα) of over 10 µM, an IC50 [1] of over 60 µM and an IC50 [2] of 18 µM. It also gave an IC50 (human TOR (FLAG-TOR)) of 3.7 µM.
`CC(C)(C)OC(=O)N1CC=C(c2cccc(Oc3cc(=O)[nH]c4ccccc34)c2)CC1` showed an IC50 (PI3Kα) of 9.5 µM, an IC50 [1] of 13 µM and an IC50 [2] of 32 µM. The IC50 (human TOR (FLAG-TOR)) was 0.65 µM.
For `O=c1cc(Oc2cccc(-c3ccc(NCc4cccnc4)cc3)c2)c2ccccc2[nH]1`, the IC50 (PI3Kα) was 7 µM, the IC50 [1] was over 60 µM and the IC50 [2] was over 60 µM. The IC50 (human TOR (FLAG-TOR)) was 1.3 µM.
In the case of `O=c1cc(Oc2cccc(-c3ccc(NCc4ccncc4)cc3)c2)c2ccccc2[nH]1`, the IC50 (PI3Kα) is reported as 5.25 µM, the IC50 [1] is reported as over 60 µM and the IC50 [2] is reported as over 60 µM. The IC50 (human TOR (FLAG-TOR)) was 0.7 µM.
`CN1CCC(Nc2ccc(-c3cccc(Oc4cc(=O)[nH]c5ccccc45)c3)cc2)CC1` gave an IC50 (PI3Kα) of 8 µM, an IC50 [1] of 2.8 µM and an IC50 [2] of 5 µM. It also gave an IC50 (human TOR (FLAG-TOR)) of 0.05 µM.
For `O=c1cc(Oc2cccc([N+](=O)[O-])c2)c2ccccc2[nH]1`, the IC50 (PI3Kα) was over 10 µM, the IC50 [1] was over 60 µM and the IC50 [2] was over 60 µM. The IC50 (human TOR (FLAG-TOR)) was 2.25 µM.
`O=c1cc(Oc2ccc3c(c2)OCO3)c2ccccc2[nH]1` was tested, and the IC50 (PI3Kα) was over 10 µM, the IC50 [1] was over 60 µM and the IC50 [2] was over 60 µM. The IC50 (human TOR (FLAG-TOR)) was 1.5 µM.
`O=c1cc(Oc2cccc(N3CCOCC3)c2)c2ccccc2[nH]1` was tested, and the IC50 (PI3Kα) was over 10 µM, the IC50 [1] was 9 µM and the IC50 [2] was 60 µM. For the same compound, the IC50 (human TOR (FLAG-TOR)) was 0.43 µM.
With `O=c1cc(Oc2cccc(NCc3ccccn3)c2)c2ccccc2[nH]1` the IC50 (PI3Kα) was 3.49 µM, the IC50 [1] was 5.8 µM and the IC50 [2] was 12 µM. For the same compound, the IC50 (human TOR (FLAG-TOR)) was 0.15 µM.
Compound `O=c1cc(Oc2cccc(NCc3ccncc3)c2)c2ccccc2[nH]1` has an IC50 (PI3Kα) of over 10 µM, an IC50 [1] of 5 µM and an IC50 [2] of 10 µM. It also gave an IC50 (human TOR (FLAG-TOR)) of 0.15 µM.
For `CN1CCC(Nc2cccc(Oc3cc(=O)[nH]c4ccccc34)c2)CC1`, the IC50 (PI3Kα) was over 10 µM, the IC50 [1] was 6 µM and the IC50 [2] was 12 µM. The IC50 (human TOR (FLAG-TOR)) was 0.32 µM.
With `O=c1cc(Oc2cccc(-c3ccco3)c2)c2ccccc2[nH]1` the IC50 (PI3Kα) was over 10 µM, the IC50 [1] was over 60 µM and the IC50 [2] was 0.7 µM. For the same compound, the IC50 (human TOR (FLAG-TOR)) was 0.4 µM.
Work on `O=c1cc(Oc2cccc(-c3ccc(N4CCNCC4)nc3)c2)c2ccccc2[nH]1` yielded an IC50 (PI3Kα) of over 10 µM, an IC50 [1] of 4.8 µM and an IC50 [2] of 7 µM. It also gave an IC50 (human TOR (FLAG-TOR)) of 0.15 µM.
`O=c1cc(Oc2cccc(-c3ccc4[nH]ccc4c3)c2)c2ccccc2[nH]1` gave an IC50 (PI3Kα) of over 10 µM, an IC50 [1] of 12 µM and an IC50 [2] of 23 µM. It also gave an IC50 (human TOR (FLAG-TOR)) of 0.47 µM.
Compound `NS(=O)(=O)c1ccc(-c2cccc(Oc3cc(=O)[nH]c4ccccc34)c2)cc1` has an IC50 (PI3Kα) of over 10 µM, an IC50 [1] of over 60 µM and an IC50 [2] of 60 µM. For the same compound, the IC50 (human TOR (FLAG-TOR)) was 0.26 µM.
`CS(=O)(=O)Nc1ccc(-c2cccc(Oc3cc(=O)[nH]c4ccccc34)c2)cc1` gave an IC50 (PI3Kα) of over 10 µM, an IC50 [1] of 5.8 µM and an IC50 [2] of 26 µM. The IC50 (human TOR (FLAG-TOR)) was 0.27 µM.
`O=c1cc(Oc2cccc(-c3cccc(NCc4cccnc4)c3)c2)c2ccccc2[nH]1` was tested, and the IC50 (PI3Kα) was over 10 µM, the IC50 [1] was 8 µM and the IC50 [2] was 28 µM. It also gave an IC50 (human TOR (FLAG-TOR)) of 0.51 µM.
`O=c1cc(Oc2cccc(-c3ccc(NCCCl)cc3)c2)c2ccccc2[nH]1` showed an IC50 (PI3Kα) of over 10 µM, an IC50 [1] of 6.2 µM and an IC50 [2] of 11 µM. For the same compound, the IC50 (human TOR (FLAG-TOR)) was 0.44 µM.
With `CN1CCN(CCNc2ccc(-c3cccc(Oc4cc(=O)[nH]c5ccccc45)c3)cc2)CC1` the IC50 (PI3Kα) was over 10 µM, the IC50 [1] was 12 µM and the IC50 [2] was 23 µM. It also gave an IC50 (human TOR (FLAG-TOR)) of 0.14 µM.
With `O=c1cc(Oc2cccc(-c3ccc(NCCN4CCCC4)cc3)c2)c2ccccc2[nH]1` the IC50 (PI3Kα) was over 10 µM, the IC50 [1] was 3.05 µM and the IC50 [2] was 4.5 µM. It also gave an IC50 (human TOR (FLAG-TOR)) of 0.18 µM.
`CN(C)CCNc1ccc(-c2cccc(Oc3cc(=O)[nH]c4ccccc34)c2)cc1` showed an IC50 (PI3Kα) of 5 µM, an IC50 [1] of 4.8 µM and an IC50 [2] of 8 µM. It also gave an IC50 (human TOR (FLAG-TOR)) of 0.18 µM.
